Assay results as given in ChEMBL document CHEMBL2375281, “Exploring the UDP pocket of LpxC through amino acid analogs” (Bioorg Med Chem Lett, 2013).

Assay: Lipophilicity, log D of the compound
Format: physicochemical
Settings: octanol/water

Row | logD | SMILES
1 | 2 | O=C(C[C@H](NC(=O)c1ccc(C#Cc2ccccc2)cc1)C(=O)NO)NCCCO
2 | 2 | O=C(N[C@@H](CO)C(=O)NO)c1ccc(C#Cc2ccccc2)cc1
3 | > 3 | O=C(NC1(C(=O)NO)CCCCC1)c1ccc(C#Cc2ccccc2)cc1
4 | 3 | CSC[C@H](NC(=O)c1ccc(C#Cc2ccccc2)cc1)C(=O)NO
5 | > 3 | CC(C)C(NC(=O)c1ccc(C#Cc2ccccc2)cc1)C(=O)NO (racemic)
6 | 3 | O=C(NC1(C(=O)NO)CCNCC1)c1ccc(C#Cc2ccccc2)cc1
7 | 1 | NC(=O)C[C@H](NC(=O)c1ccc(C#Cc2ccccc2)cc1)C(=O)NO
8 | 3 | C#CCNC(=O)C[C@H](NC(=O)c1ccc(C#Cc2ccccc2)cc1)C(=O)NO
9 | > 3 | O=C(NC1(C(=O)NO)CCC1)c1ccc(C#Cc2ccccc2)cc1
10 | > 3 | O=C(NC1(C(=O)NO)CCSCC1)c1ccc(C#Cc2ccccc2)cc1
11 | > 3 | O=C(N[C@@H](C(=O)NO)c1ccccc1)c1ccc(C#Cc2ccccc2)cc1
12 | 2 | CS(=O)(=O)C[C@H](NC(=O)c1ccc(C#Cc2ccccc2)cc1)C(=O)NO
13 | 3 | O=C(NC1(C(=O)NO)CCS(=O)(=O)CC1)c1ccc(C#Cc2ccccc2)cc1
14 | 2 | O=C(N[C@H](CO)C(=O)NO)c1ccc(C#Cc2ccccc2)cc1
15 | > 3 | CC(NC(=O)c1ccc(C#Cc2ccccc2)cc1)C(=O)NO (racemic)
16 | 2 | NC[C@H](NC(=O)c1ccc(C#Cc2ccccc2)cc1)C(=O)NO
17 | 3 | O=C(CNC(=O)c1ccc(C#Cc2ccccc2)cc1)NO
18 | > 3 | O=C(NC1(C(=O)NO)CCN(Cc2ccccc2)CC1)c1ccc(C#Cc2ccccc2)cc1
19 | 3 | O=C(N[C@H](C(=O)NO)c1ccccc1)c1ccc(C#Cc2ccccc2)cc1
20 | 2 | C[C@H](O)[C@H](NC(=O)c1ccc(C#Cc2ccccc2)cc1)C(=O)NO
21 | > 4 | O=C(NC1(C(=O)NO)CCOCC1)c1ccc(C#Cc2ccccc2)cc1
22 | 3 | CC(C)(NC(=O)c1ccc(C#Cc2ccccc2)cc1)C(=O)NO
23 | 2 | COCCNC(=O)C[C@H](NC(=O)c1ccc(C#Cc2ccccc2)cc1)C(=O)NO
